{"source": "patent US20210308101A1", "about": "“METHODS OF TREATING FIBROMYALGIA” (Aptinyx Inc., priority 2019, published 2021)", "format_in_all_cases": "in vivo, human", "key": {"[1]": {"test_system": "subjects with fibromyalgia", "experiment": "Hospital Anxiety and Depression Scale (HADS)", "conditions": "Weeks 4 and 6", "description": "As used herein, “HADS” is Hospital Anxiety and Depression Scale. The HADS is a self-reported screening tool for anxiety and depression in non-psychiatric clinical populations. The scale consists of 14 items (7 each for anxiety and depression), each rated on a 4-point scale ranging from 0 to 3 (i.e. 0=not at all; 3=most of the time). The categorical responses are slightly different for some of the questions, but the numeric scores remained the same from 0 to 3. Responses were based on the relative frequency of symptoms over the preceding week. […] The individual imputed missing scores used the specific subscale mean score and were rounded off to the nearest whole number. If an individual subscale score was missing 4 or more items, then that subscale score was set to missing. A total score adding the anxiety and depression subscale scores for HADS was not calculated. Possible scores range from 0 to 21 for each subscale. […]\nThe HADS assessment was collected and analyzed at visits Screening, Day 1, Week 2, Week 4, Week 6, and Follow-up (Week 7). […] Additionally, the treatment group comparisons were analyzed using the paired t-test and nonparametric Wilcoxon signed-rank test.\nThe 4 interpreted categorical values for each subscale were summarized in a frequency distribution table. All HADS data collected and the calculated subscale scores at each visit were presented in a subject listing."}, "[2]": {"test_system": "subjects with fibromyalgia", "experiment": "Fibromyalgia Survey Questionnaire (Widespread Pain Index, Symptom Severity Score)", "description": "As used herein, “FSQ” is Fibromyalgia Survey Questionnaire, which is a patient-reported tool to assess the 2011 ACR Fibromyalgia criteria circumventing the requirement of physician assessment. The criteria review the widespread pain index, and somatic symptoms. The somatic symptoms of fatigue, waking unrefreshed, and cognitive symptoms were scored from 0 (no problem) to 3 (severe, pervasive, continuous, life disturbing problems). Symptoms of headaches, pain or cramps in the lower abdomen, and depression were given a score of 1, if they had occurred in the past 3 months.\nAs used herein, “WPI” is the Widespread Pain Index, which is a score comprised of 19 areas where subjects experienced pain within the last week with a yes or no response for each area. Each individual yes response has a numeric value of 1 and 0 is assigned to each no response. The WPI score had values ranging from 0 to 19. If any of the individual area responses were missing, the WPI score was not calculated. Here are the 19 areas that were assessed: Left Jaw, Right Jaw, Left Shoulder, Right Shoulder, Right Upper Arm, Left Upper Arm, Right Lower Arm, Left Lower Arm, Neck, Upper Back, Chest, Abdomen, Lower Back, Right Hip, Left Hip, Right Upper Leg, Left Upper Leg, Right Lower Leg, and Left Lower Leg.\nAs used herein, “SS” is the Symptom Severity Score, based on 3 questions each having a numeric score ranging from 0 to 3 and an additional 3 questions each having a numeric score of 0 or 1. If all 6 questions were given a numeric score, then the Symptom Severity Score ranged from 0 to 12. If any of the individual scores were missing, the Symptom Severity Score was not calculated.\nAs used herein, “ACR Fibromyalgia Criteria” is 2011 American College of Rheumatology Fibromyalgia Criteria, and includes FSQ, WPI, and SS. These assessments were analyzed at Day 1, Week 2, Week 4, Week 6, and Follow-up (Week 7). Both the observed Widespread Pain Index score and Symptom Severity Score, changes from baseline, and changes from treatment periods were summarized using descriptive statistics. Additionally, the treatment group comparisons were analyzed using the paired t-test and nonparametric Wilcoxon signed-rank test. A frequency distribution table was presented for yes/no responses for these categories: • Widespread Pain Index ≥7 and Symptom Severity Score >5 • Widespread Pain Index is 3 to 6 and the Symptom Severity Score is >9"}, "[3]": {"test_system": "subjects with fibromyalgia", "experiment": "QST: cuff algometry", "method": "Large volume, deep tissue pressure sensitivity was assessed by cuff algometry. Calibrated cuff pain stimuli were delivered to the gastrocnemius area of the lower leg using a validated MRI-compatible cuff pain device. This system included an air compressor, computerized pressure controller, and a 13.5 cm×82.5 cm Velcro-adjusted pressure cuff (similar to a blood pressure cuff). Subjects first received an ascending series of cuff pressures, starting at 20 mmHg and increasing in 20-mmHg steps (10- to 14-second duration pressures, 20-second interstimulus interval) to tolerance or a maximum of 400 mmHg. Each pressure was rated after deflation on a 0 to 100 NRS. These pain ratings were used to interpolate a series of 9 tolerable cuff pressures that were delivered in pseudo-randomized order and rated individually. […] Curves were constructed for each participant and used for analysis of drug and placebo effects. An abbreviated form of cuff algometry was performed during fMRI as an evoked pain stimulus.\nQST data were analyzed at the University of Michigan CPFRC. Dependent variables were the MAST derived outcomes (Pain50, pressure pain threshold, pain tolerance, and pain ratings at 2 kg/cm2), algometry-derived pressure pain thresholds (mean of three trials) at each anatomical site, average cuff intensity ratings (mean of ratings at all stimulus levels during the ascending or random sequences), and average visual task unpleasantness and brightness intensity ratings (mean of ratings at all stimulus levels). Practice data were not analyzed. Overall pain intensity and unpleasantness NRS scores as well as stimulus response curves for each test were assessed during post hoc analyses. Data points displaying measurement artefacts, including device malfunction or user error, were set to missing. Single subject QST variables were analyzed using paired t-tests and/or nonparametric Wilcoxon signed-rank tests in SPSS or R."}, "[4]": {"conditions": "Week 2 (placebo) to Week 4 (NYX-2925 20 mg), not statistically significant"}}, "data": [{"smiles": "CC(C)C(=O)N1CCC[C@]12CN([C@H](C(N)=O)[C@@H](C)O)C2=O", "note": "[NYX-2925, (2S, 3R)-3-hydroxy-2-((R)-5-isobutyryl-1-oxo-2,5-diazaspiro[3.4]octan-2-yl)butanamide]", "values": [{"measurement": "HADS Total Anxiety score, mean changes from Week 2 (placebo)", "setting": "[1]", "result": "No statistically significant mean changes"}, {"measurement": "HADS Total Depression score, mean changes from Week 2 (placebo)", "setting": "[1]", "result": "No statistically significant mean changes"}, {"measurement": "Symptom Severity score, mean change", "setting": "[2]; [4]", "result": "−0.3"}, {"measurement": "Widespread Pain Index, mean change", "setting": "[2]; [4]", "result": 0.0}, {"measurement": "Widespread Pain Index, mean change", "setting": "[2]; Week 2 (placebo) to Week 6 (NYX-2925 200 mg), not statistically significant", "result": "−1.3"}, {"measurement": "Symptom Severity score, mean change", "setting": "[2]; Week 2 (placebo) to Week 6 (NYX-2925 200 mg), statistically significant", "result": "−0.9"}, {"measurement": "mean pain intensity rating of the Cuff Random paradigm", "setting": "[3]; NYX-2925 20 mg relative to baseline, p=0.073", "result": "marginally reduced"}, {"measurement": "Cuff Random Pain50 threshold", "setting": "[3]; NYX-2925 20 mg, baseline 151.89±110.64, p=0.031", "result": "193.00±128.16", "unit": "mmHg"}, {"measurement": "Cuff Random Pain50 threshold", "setting": "[3]; NYX-2925 200 mg, baseline 157.70±110.78, p=0.038", "result": "209.80±132.51", "unit": "mmHg"}, {"measurement": "cuff algometry procedure overall unpleasantness rating", "setting": "[3]; Week 7 follow-up, after cessation of NYX-2925, p=0.040 vs 200 mg", "result": "30.00±22.82"}, {"measurement": "cuff algometry procedure overall unpleasantness rating", "setting": "[3]; treatment with NYX-2925 200 mg (Week 6)", "result": "25.00±19.15"}]}]}
